Test results reported in patent publication US20250320565A1, “DETECTING ANTIBIOTIC AND/OR CHEMICAL USE IN AQUATIC ANIMALS USING EPIGENETIC MEANS” (Evonik Operations GmbH, priority 2022, published 2025).

System: marble crayfish
Test: DNA methylation analysis (Agilent Sure Select Methyl-Seq) of abdominal tissue genomic DNA after antibiotic administration in feed
Assay type: in vivo
Conditions: for number of DNA segments with significant differences between the control and the treated animals: Kruskal Wallis test, p<0.05, CpGs with at least 10 reads, average methylation <0.2 or >0.8 filtered out
Experimental: Marble crayfish collected from a population at Lake Reilinger, Germany were collected for the experiment and reared from juveniles in the laboratory. A total of 30 adult marbled crayfish were reared in one of 5 treatments with replicates as outlined in Table 1: • 1) Control—no antibiotic treatment • 2) TetraA—Acute tetracycline administration at 10 mg/kg of feed for 7 days • 3) TetraB—Prophylactic tetracycline administration at 5 mg/kg of feed for 42 days • 4) NorA—administered at 10 mg/kg of feed for 7 days • 5) NorB—administered at 5 mg/kg of feed for 28 days
All other rearing variables were kept consistent for all treatment groups. Crayfish were reared in plastic containers with 20° C. tap water, which was replaced every two weeks, exposed to natural day-night light rhythms and daily feeding.
A subset of abdominal tissue genomic DNA samples (Table 1) was utilized for analysis of the Agilent Sure Select Methyl-Seq Assay. Abdominal tissue was extracted from marble crayfish directly after treatment duration, DNA was then extracted as previously described (Tönges et al, 2021).
Library preparation was carried out as described in the Agilent's Sure Select Methyl-Seq Target Enrichment System for Illumina Multiplexed Sequencing Protocol (version E0, April 2018) to specifically analyze 361 genes. These genes were previously characterized as variably methylated genes in the marble crayfish genome, showing differential site-specific methylation patterns in marble crayfish from different wild populations (Gatzmann et al., 2018; Tönges et al., 2021b).
Quality controls were performed, and sample concentrations were measured on a 2,200 TapeStation (Agilent). Multiplexed samples were submitted to the DKFZ High Throughput Sequencing core facility and sequenced on a HiSeq system (Illumina). For data analysis, the 361 sequenced genes were mapped to the bisulfite sequencing datasets of the entire […] genome (Gatzmann et al., 2018; Xi and Li 2009).
To identify antibiotic-specific methylation ratios in genomic DNA from abdominal tissue, the average methylation of each sample within 1 kb of DNA segments was calculated.
The data sets of the 1754 DNA segments were further analyzed and only the CpG positions covered in all samples with at least 10 reads were used. In addition, the CpGs that were either completely methylated or unmethylated (average methylation <0.2 or >0.8) were filtered out.
The DNA segments of the PCA were further analyzed and only the CpG positions that have at least 10 reads in all samples were reused. Furthermore, the CpGs that are completely unmethylated or methylated (average methylation <0.2 or >0.8) were filtered out.

[1] = NorB: 5 mg/kg of feed for 28 days, compared with control and NorA
[2] = control vs the two treatment groups, average methylation

`CCn1cc(C(=O)O)c(=O)c2cc(F)c(N3CCNCC3)cc21` [norfloxacin] was tested, and the “number of DNA segments with significant differences between the control and the treated animals” value was 71, the “average methylation rates of eight CpGs of gene Scaffold_52370: 13110767-13110901” value (NorA: 10 mg/kg of feed for 7 days, compared with control) was “no significant difference” and the “methylation rates of eight CpGs of gene Scaffold_36323: 7555-7623” value [1] was “higher methylation rates in all CpGs”. The “methylation ratios of eight CpGs of gene Scaffold_52370: 13110767-13110901” value [1] was “higher methylation ratios of all CpGs”, the “PCA separation between treated and untreated samples and between the two treatment groups” value (PCA of differentially methylated DNA segments) was “robust separation” and the “effect size Cohen's d of all other DNA segments (very small effect)” value [2] was less than 0.02. For the same molecule, the “number of DNA segments showing a small effect (Cohen's d>0.2)” value [2] was 4 and the “analysis of DMRs, treatment groups vs control” value (p>0.05) was “no significant differences”.

`CN(C)[C@@H]1C(O)=C(C(N)=O)C(=O)[C@@]2(O)C(O)=C3C(=O)c4c(O)cccc4[C@@](C)(O)[C@H]3C[C@@H]12` [tetracycline] was tested, and the “number of DNA segments with significant differences between the control and the treated animals” value was 432.
